Measured values from US10441597B2, “Ciclesonide for the treatment of airway disease in horses” (Boehringer Ingelheim Vetmedica GmbH, priority 2012, dated 2019).
Entries after “also recorded” stand apart in the source; their conditions may differ.

Experiments:
serum cortisol = test: Moldy hay challenge study in RAO horses: serum cortisol; conditions: for Serum cortisol levels: any measured time point
cortisol levels = conditions: humans; after aerosol administration/inhalation; cited from earlier work
RAO horses [1] = test: Moldy hay challenge study in RAO horses: lung function variables (transpulmonary pressure, lung resistance, lung elastance); type: in vivo, horse; conditions: for Difference in lung function variables versus dexamethasone group: after 7 or 14 days; for Efficacy relative to dexamethasone measured in lung function variables and clinical score: moldy hay challenge model, RESPIMAT inhaler with Equine Inhaler device, examples 1 and 3
Text: (§1) The commercially available […]® is used in the study.

RAO horses [2] = test: Moldy hay challenge study in RAO horses: clinical score (breathing effort score, weighted clinical score); type: in vivo, horse
Text: as §1

[3] = Concentration of ciclesonide and metabolite in equine plasma (HPLC-MS/MS); conditions: for Ciclesonide concentration in equine plasma: 2nd ciclesonide study, n=8 mean
IAD horse = test: Impulse oscillometry lung function in one IAD horse (4th ciclesonide study); type: in vivo; conditions: 2700 μg ciclesonide twice daily for 14 days
Text: Ciclesonide is investigated in a baseline controlled, blinded study examining one (1) IAD horse. […] Lung function variables using the impulse oscillometry system (respiratory resistance (Rrs) and reactance (Xrs) are examined during the study.

[4] = system: segmented neutrophils and lymphocytes; test: Moldy hay challenge study in RAO horses: segmented neutrophil and lymphocyte counts; type: in vivo, horse; conditions: for Lymphocytes / Segmented neutrophils: nozzle B, n=7 mean
Experimental: as §1
The segmented neutrophil counts and the lymphocyte counts are determined in the studies above: ciclesonide treatment versus dexamethasone treatment.

[5] = frequencies 0.2 to 2 Hz, in contrast to pretreatment values
[6] = 1st ciclesonide study, ciclesonide 450/900/1800 μg/horse twice daily
[7] = 2nd ciclesonide study, ciclesonide 1687.5 B/2700 A/2700 B μg twice daily
[8] = 3rd ciclesonide study, ciclesonide groups
[9] = D 0, 2700 μg ciclesonide/horse twice daily inhaled 14 days, 3rd ciclesonide study
[10] = D 0, 3712.5 μg ciclesonide/horse once daily in the evening inhaled 14 days, 3rd ciclesonide study
[11] = D 0, 3712.5 μg ciclesonide/horse once daily in the morning inhaled 14 days, 3rd ciclesonide study
[12] = D 14, 2700 μg ciclesonide/horse twice daily inhaled 14 days, 3rd ciclesonide study
[13] = D 14, 3712.5 μg ciclesonide/horse once daily in the evening inhaled 14 days, 3rd ciclesonide study
[14] = D 14, 3712.5 μg ciclesonide/horse once daily in the morning inhaled 14 days, 3rd ciclesonide study
[15] = D 21, 2700 μg ciclesonide/horse twice daily inhaled 14 days, 3rd ciclesonide study
[16] = D 21, 3712.5 μg ciclesonide/horse once daily in the evening inhaled 14 days, 3rd ciclesonide study
[17] = D 21, 3712.5 μg ciclesonide/horse once daily in the morning inhaled 14 days, 3rd ciclesonide study

Compound: CC(C)C(=O)OCC(=O)[C@@]12O[C@H](C3CCCCC3)O[C@@H]1C[C@H]1[C@@H]3CCC4=CC(=O)C=C[C@]4(C)[C@H]3[C@@H](O)C[C@@]12C [ciclesonide, (11β,16α)-16,17-[[(R)-Cyclohexylmethylene]bis(oxy)]-11-hydroxy-21-(2-methyl-1-oxopropoxy)pregna-1,4-diene-3,20-dione]
- Serum cortisol levels (serum cortisol; 1st ciclesonide study, any ciclesonide group (450/900/1800 μg/horse twice daily)): no significant reduction
- Serum cortisol levels (serum cortisol; 2nd ciclesonide study, any ciclesonide group (1687.5 B/2700 A/2700 B μg twice daily)): no significant reduction
- Serum cortisol levels (serum cortisol; 3rd ciclesonide study, any ciclesonide group (2700 μg twice daily/3712.5 μg morning/3712.5 μg evening)): no significant reduction
- Cortisol level compared to values prior to treatment (serum cortisol; after administration of the highest ciclesonide dose, example 3): does not change significantly
- Serum cortisol level of horses (serum cortisol; ciclesonide, treatment for two weeks with different dose levels, Examples 2-3): no decrease
- Measured cortisol levels (cortisol levels): no or clinically not relevant cortisol suppression
- ΔPL and EL compared to pretreatment values (RAO horses [1]; 1st ciclesonide study, ciclesonide 1800 μg/horse twice daily inhaled (only the highest dose), after 14 days, p=0.0005 and p=0.0004): statistically significant reduction
- Difference in ΔPL and EL versus dexamethasone group (RAO horses [1]; 1st ciclesonide study, ciclesonide 1800 μg/horse twice daily, after 14 days): no significant difference
- All lung function variables compared to pretreatment values (RAO horses [1]; 2nd ciclesonide study, all ciclesonide groups (1687.5 μg nozzle B/2700 μg nozzle A/2700 μg nozzle B twice daily), after 14 days, p=0.0009 to p<0.0001): significantly reduced
- Difference in lung function variables versus dexamethasone group (RAO horses [1]; 2nd ciclesonide study, all ciclesonide groups): no significant difference
- Difference in lung function variables (ΔPL, RL) versus placebo group (RAO horses [1]; 3rd ciclesonide study, all ciclesonide groups, after 14 days, p<0.0001 (2700 μg, 3712.5 μg evening), p=0.0005 ΔPL / p=0.0003 RL (3712.5 μg morning)): significant difference
- Change in ΔPL compared to pretreatment values (RAO horses [1]; 3rd ciclesonide study, ciclesonide 2700 μg twice daily, after 7 days, p<0.0001): significantly reduced
- ΔPL and RL compared to pretreatment values (RAO horses [1]; 3rd ciclesonide study, ciclesonide 2700 μg twice daily, after 14 days, p<0.0001): significantly reduced
- Reduction of ΔPL and RL compared to pretreatment values (RAO horses [1]; 3rd ciclesonide study, ciclesonide 2700 μg, after 7 days, p<0.0001): statistically significant
- Reduction of RL compared to pretreatment values (RAO horses [1]; 3rd ciclesonide study, ciclesonide 2700 μg, after 7 days, p=0.0002): statistically significant
- Change in ΔPL compared to pretreatment values (RAO horses [1]; 3rd ciclesonide study, ciclesonide 3712.5 μg once daily in the evening, after 7 days, p=0.001): significantly reduced
- RL compared to pretreatment values (RAO horses [1]; 3rd ciclesonide study, ciclesonide 3712.5n (once daily in the evening), after 14 days, p=0.0001): significantly reduced
- Lung function variables compared to pretreatment values and to placebo group (RAO horses [1]; 3rd ciclesonide study, ciclesonide treatment groups, after 14 days): significantly reduced
- Efficacy relative to dexamethasone measured in lung function variables and clinical score (RAO horses [1]): comparable efficacy
- Breathing effort score (RAO horses [2]; 1st ciclesonide study, ciclesonide 450/900/1800 μg/horse twice daily, any measured time point): no significant changes
- Weighted clinical score compared to pretreatment values (RAO horses [2]; 2nd ciclesonide study, all three ciclesonide groups, after 14 days, p=0.0001 to p<0.0001): significantly reduced
- Difference in weighted clinical score versus dexamethasone group (RAO horses [2]; 2nd ciclesonide study, ciclesonide treatment groups, after 14 days): no significant difference
- Weighted clinical score compared to pretreatment values (RAO horses [2]; 3rd ciclesonide study, ciclesonide 2700 μg twice daily, after 7 and 14 days, p=0.0001 (7 days), p=0.0003 (14 days)): significantly reduced
- Difference in weighted clinical score versus placebo group (RAO horses [2]; 3rd ciclesonide study, ciclesonide treatment groups, after 14 days, p=0.0002 (2700 μg, 3712.5 μg evening), p=0.0006 (3712.5 μg morning)): significant difference
- Ciclesonide concentration in equine plasma ([3]; day 1, 0 min, ciclesonide 2700 μg nozzle B twice daily inhaled): <0.500 nmol/L
- Ciclesonide concentration in equine plasma ([3]; day 1, 1 h, ciclesonide 2700 μg nozzle B twice daily inhaled): <0.500 nmol/L
- Ciclesonide concentration in equine plasma ([3]; day 1, 2 h, ciclesonide 1687.5 μg nozzle B twice daily inhaled): <0.500 nmol/L
- Ciclesonide concentration in equine plasma ([3]; day 1, 2 h, ciclesonide 2700 μg nozzle B twice daily inhaled): <0.500 nmol/L
- Ciclesonide concentration in equine plasma ([3]; day 1, 4 h, ciclesonide 1687.5 μg nozzle B twice daily inhaled): <0.500 nmol/L
- Ciclesonide concentration in equine plasma ([3]; day 1, 4 h, ciclesonide 2700 μg nozzle B twice daily inhaled): <0.500 nmol/L
- Ciclesonide concentration in equine plasma ([3]; day 11, 0 min, ciclesonide 2700 μg nozzle A twice daily inhaled): <0.500 nmol/L
- Ciclesonide concentration in equine plasma ([3]; day 11, 0 min, ciclesonide 2700 μg nozzle B twice daily inhaled): <0.500 nmol/L
- Ciclesonide concentration in equine plasma ([3]; day 11, 1 h, ciclesonide 2700 μg nozzle A twice daily inhaled): <0.500 nmol/L
- Ciclesonide concentration in equine plasma ([3]; day 11, 1 h, ciclesonide 2700 μg nozzle B twice daily inhaled): <0.500 nmol/L
- Ciclesonide concentration in equine plasma ([3]; day 11, 2 h, ciclesonide 2700 μg nozzle A twice daily inhaled): <0.500 nmol/L
- Ciclesonide concentration in equine plasma ([3]; day 11, 2 h, ciclesonide 2700 μg nozzle B twice daily inhaled): <0.500 nmol/L
- Ciclesonide concentration in equine plasma ([3]; day 11, 4 h, ciclesonide 2700 μg nozzle A twice daily inhaled): <0.500 nmol/L
- Ciclesonide concentration in equine plasma ([3]; day 11, 4 h, ciclesonide 2700 μg nozzle B twice daily inhaled): <0.500 nmol/L
- Conversion of ciclesonide into the effective molecule C21-C21-desisobutyrylciclesonide ([3]; in horses, example 5): can be converted
- Mean respiratory reactance in inspiration versus expiration (IAD horse; [5]): not different
- Mean respiratory resistance in inspiration versus expiration (IAD horse; [5]): not different
- Mean respiratory resistance (Rrs) compared to pretreatment values (IAD horse; frequencies 0.2 to 20 Hz, mean of three measurements): decreased
- Mean respiratory reactance (Xrs) compared to pretreatment values (IAD horse; frequencies 5 to 10 Hz, mean of three measurements): decreased
- Counts of lymphocytes after administration [4, 6]: no change
- Counts of segmented neutrophils after administration [4, 6]: no or minor increase
- Counts of lymphocytes after administration [4, 7]: no change
- Counts of segmented neutrophils after administration [4, 7]: no or minor increase
- Counts of lymphocytes after administration [4, 8]: no change
- Counts of segmented neutrophils after administration [4, 8]: no or minor increase
- Lymphocytes [4, 9]: 2.55e+09 L⁻¹
- Segmented neutrophils [4, 9]: 3.97e+09 L⁻¹
- Lymphocytes [4, 10]: 2.55e+09 L⁻¹
- Segmented neutrophils [4, 10]: 3.73e+09 L⁻¹
- Lymphocytes [4, 11]: 2.21e+09 L⁻¹
- Segmented neutrophils [4, 11]: 4.37e+09 L⁻¹
- Lymphocytes [4, 12]: 2.54e+09 L⁻¹
- Segmented neutrophils [4, 12]: 4.57e+09 L⁻¹
- Lymphocytes [4, 13]: 2.43e+09 L⁻¹
- Segmented neutrophils [4, 13]: 4.37e+09 L⁻¹
- Lymphocytes [4, 14]: 2.48e+09 L⁻¹
- Segmented neutrophils [4, 14]: 4.45e+09 L⁻¹
- Lymphocytes [4, 15]: 2.49e+09 L⁻¹
- Segmented neutrophils [4, 15]: 3.47e+09 L⁻¹
- Lymphocytes [4, 16]: 2.48e+09 L⁻¹
- Segmented neutrophils [4, 16]: 3.41e+09 L⁻¹
- Lymphocytes [4, 17]: 2.66e+09 L⁻¹
- Segmented neutrophils [4, 17]: 3.75e+09 L⁻¹
- Alteration in the immune system measured by neutrophilia and lymphopenia ([4]; ciclesonide, treatment for two weeks with different dose levels, 1st and 2nd ciclesonide studies (Table 2)): no alteration; also recorded: not observed

Compound: CCCC1O[C@@H]2C[C@H]3[C@@H]4CCC5=CC(=O)C=C[C@]5(C)[C@H]4[C@@H](O)C[C@]3(C)[C@]2(C(=O)CO)O1 (stereo partly shown) [budesonide]
- All lung function variables compared to pretreatment values (RAO horses [1]; Budesonide study, budesonide 1800 μg/horse ex RESPIMAT twice daily inhaled, after 14 days, p≤0.0001): significantly reduced
- Difference in lung function variables versus dexamethasone group (RAO horses [1]; Budesonide study, budesonide 1800 μg/horse twice daily): no significant difference
- Efficacy relative to dexamethasone measured in lung function variables and clinical score (RAO horses [1]): comparable efficacy
- Clinical score compared to pretreatment values (RAO horses [2]; Budesonide study, all three budesonide groups (450/900/1800 μg/horse twice daily), after 7 and 14 days, p=0.002 to p<0.0001): significantly reduced
- Difference in clinical score versus dexamethasone group (RAO horses [2]; Budesonide study, budesonide 900 and 1800 μg/horse twice daily, after 7 and 14 days): no significant difference
